Laboratory results taken from patent publication US20230285347A1, “Preterm Labour with Prostaglandin E2 Receptor Agonists” (IMPERIAL COLLEGE INNOVATIONS LIMITED, priority 2020, published 2023).

Assays:
β-adrenergic receptor = assay: cAMP signalling in myometrial cells from different labouring groups, β-adrenergic agonist; format: cell-based, human; conditions: isoproterenol 10 μM; all labouring groups; FIG. 8
Protocol: Myometrial cells from different labouring groups were treated with IBMX (5 minutes, 0.5 mM) before 1 minute stimulation with IBMX with/without butaprost (10 μM) or isoproterenol (10 μM). cAMP concentrations were normalised to protein. Data shown as mean±SEM, L−n=4. All other groups n=5. Each treatment compared to L− using one-way ANOVA with Dunnett's multiple comparison post-hoc test: **p<0.01, ***p<0.001, ****p<0.0001.

EP2 [1] = molecular target: T1, EP2 (Homo sapiens, UniProt P43116); assay: Intracellular calcium in myometrial cells with/without oxytocin pre-treatment; format: cell-based; conditions: OT pre-treatment 1 hour, 100 nM; butaprost 10 μM, AH13205 10 μM, PGN9856i 100 nM; FIG. 11
T1 construct: primary human myocytes cultured from term pregnant, non-labouring, myometrium; endogenous in cells; host or cells: primary human myometrial cells (myocytes) cultured from pregnant myometrium
Protocol: Intracellular calcium response in myometrial cells with/without OT pre-treatment (1 hour, 100 nM) stimulated with butaprost (10 μM), AH13205 (10 μM) or PGN9856i (100 nM). Data are the mean of the maximum fluorescence intensity for each cell measured normalised to background (F-FO). Shown as fold-change over butaprost response. One-way ANOVA with Dunnett's multiple comparison post-hoc test: ##p<0.01. One-sample t-test: *p<0.05.

EP2 [2] = molecular target: T1, EP2; assay: cAMP in non-labouring myometrial cells with/without oxytocin pre-treatment; format: cell-based; conditions: OT pre-treatment 1 hour, 100 nM; butaprost 10 μM, AH13205 10 μM, PGN9856i 100 nM; FIG. 10
Protocol: Myometrial cells with/without oxytocin (OT) pre-treatment (1 hour, 100 nM) were treated with IBMX (5 minutes, 0.5 mM) before 1 minute stimulation with IBMX with/without either DMSO, butaprost (10 μM), AH13205 (10 μM) or PGN9856i (100 nM). cAMP concentrations were normalised to protein. Each patient's data normalised to butaprost response and shown as mean±SEM, n=6. One-sample t-test: #p<0.05. ##p<0.01. One-way ANOVA with Sidak's multiple comparison post-hoc test: **p<0.01.
(§1) Confluent myometrial cells were treated with/without OT (100 nM) for 1 hour before 3 PBS washes and the addition of […] IBMX (3-isobutyl-1-methylxanthine) in PBS for 5 minutes at 37° C. This was exchanged for 0.5 μM IBMX in PBS plus either DMSO, butaprost (10 μM), AH13205 (10 μM) or PGN9856i (100 nM) for […]. Cells were lysed in Cisbio cAMP lysis buffer with 0.2% TritonX-100 and centrifuged for 15 minutes at 16,000 g. Lysates were normalized to protein concentration determined by Coomassie (Bradford) Protein Assay Kit and analysed as per manufacturers' protocol (Cisbio Gαs dynamic assay) using a PHERAstar FSX.

EP2 [3] = molecular target: T1, EP2; assay: Intracellular cAMP in primary human myocytes from term pregnant non-labouring myometrium; format: cell-based; conditions: butaprost 10 μM, AH13205 10 μM, PGN9856i 100 nM, FIG. 5
Protocol: In the myometrium EP2 is an important regulator of parturition. To assess if PGN9856i, butaprost and AH13205 induce similar second messenger profiles in the myometrium as HEK 293 cells, primary human myocytes cultured from term pregnant, non-labouring, myometrium, were treated with each ligand and intracellular cAMP, calcium and PGE2 release was measured.
Myometrial tissue was acquired at St. Mary's hospital, Queen Charlotte and Chelsea hospital and Charing Cross hospital, London. Tissue was obtained from women provided with informed written consent with the approval from the Riverside Research Ethics Committee (RREC 3357, 1997-5089, 19/LO/1657) and experiments were carried out under the committee's guidelines and recommendations. Tissues were obtained from term (38+0-40 weeks gestation) pregnant women undergoing elective caesarean from the upper margin of the incision made at the lower segment of the uterus, before or after the onset of labor. Tissues taken from women in early labour (<3 cm cervical dilation) or late labour (>3 cm cervical dilation) with/without induction with syntocinon, an oxytocin analogue. Tissue was only taken from uncomplicated, singleton pregnancies.
Tissue was stored at 4° C. in phosphate buffered saline until fine dissection with scalpels and dissociation at 37° C. for 1 hour in a sterile-filtered mix of Dulbecco's modified Eagle's medium (DMEM) (Sigma Aldrich)/Ham's F-12 Nutrient Mixture (Sigma Aldrich) and serum-free DMEM (Sigma Aldrich) (1:1 v/v) containing collagenase 1A (Sigma Aldrich)(1 mg/ml), collagenase X (Sigma Aldrich)(1 mg/ml) and bovine serum albumin (Sigma Aldrich) (2 mg/ml). […]
Confluent myometrial cells were treated with/without OT (100 nM) for 1 hour before 3 PBS washes and the addition of […] IBMX (3-isobutyl-1-methylxanthine) in PBS for 5 minutes at 37° C. […] Lysates were normalized to protein concentration determined by Coomassie (Bradford) Protein Assay Kit and analysed as per manufacturers' protocol (Cisbio Gαs dynamic assay) using a PHERAstar FSX.

human FLAG-EP2 [4] = molecular target: T2, human FLAG-EP2 (Homo sapiens, UniProt P43116); assay: Intracellular Ca2+ release in HEK 293 cells stably expressing EP2 (Fluo-4, confocal; Gαq/11 readout); format: cell-based; conditions: HEK 293 EP2 cells; butaprost 10 μM, AH13205 10 μM, PGN9856i 100 nM; vs vehicle; FIG. 3
T2 construct: FLAG; expressed in transfected cells
Protocol: To measure Gαq/11 activation, HEK 293 cells stably expressing human FLAG-EP2 were pre-labelled with a Ca2+ indicator dye and acutely stimulated with each ligand.
HEK 293 cells, prepared following the same methodology as outlined in Example 1, were seeded onto Mattek dishes with 14 mm by 1.5 mm glass coverslips. Cells were incubated with Fluo-4am Ca2+ indicator (ThermoFisher) as per manufacturer's instructions. […]. Time-series images were acquired using a Leica SP5 confocal microscope, Leica LAS AF image acquisition software and a 488 nm excitation laser. HEK cells were imaged using a 10× dry objective. EP2 agonists (butaprost 10 μM, AH13205 10 μM or PGN9856i 100 nM) were added following measurement of basal fluorescence. Raw files were analysed using Fiji Time series analyser plugin to find the maximal fluorescent intensity, which was then averaged across cells in each condition.
The maximal fluorescence intensity was measured by live confocal microscopy.

human FLAG-tagged EP2 = molecular target: T3, human FLAG-tagged EP2 (Homo sapiens, UniProt P43116); assay: cAMP induction in HEK 293 cells stably expressing EP2 (Gαs readout); format: cell-based; conditions: HEK 293 EP2 cells; 5 minutes of stimulation; no significant difference between ligands; FIG. 2
T3 construct: FLAG; expressed in transfected cells
Protocol: EP2 is a dually coupled GPCR capable of activating downstream signalling pathways via Gαs (anti-labour inducing) and Gαq/11 (pro-labour inducing).
HEK 293 cells were maintained in DMEM (Dulbecco's Modified Eagle Medium) containing 10% fetal bovine serum and 100 μ/ml penicillin-streptomycin, and cultured in 75 cm flasks at 37° C. in 95% air and 5% CO2. Cells at 95% confluency were passaged using 0.25% trypsin with 0.02% EDTA in phosphate-buffered saline (PBS).
as §1

human FLAG-EP2 [5] = molecular target: T2, human FLAG-EP2; assay: PGE2 release by ELISA in HEK 293 cells stably expressing EP2; format: cell-based; conditions: HEK 293 EP2 cells; 6 hours; butaprost 10 μM, AH13205 10 μM, PGN9856i 100 nM; FIG. 4
Protocol: COX-2 is an inflammatory mediator that drives PGE2 production. The inventors had previously shown EP2-dependent COX-2 release to be downstream of Ca2+ release in primary human myometrium and that 6-hour agonist treatment is necessary for increasing COX-2 levels and PGE2 secretion (Kandola et al, 2014). HEK 293 cells stably expressing human FLAG-EP2 were stimulated for 6 hours with an EP2 agonist (butaprost 10 μM, AH13205 10 μM or PGN9856i 100 nM) or DMSO. 1 mL media was collected from COX-2 experiments and immediately frozen at −80 degrees Celsius. […]

T1 sequence (P43116 whole entry): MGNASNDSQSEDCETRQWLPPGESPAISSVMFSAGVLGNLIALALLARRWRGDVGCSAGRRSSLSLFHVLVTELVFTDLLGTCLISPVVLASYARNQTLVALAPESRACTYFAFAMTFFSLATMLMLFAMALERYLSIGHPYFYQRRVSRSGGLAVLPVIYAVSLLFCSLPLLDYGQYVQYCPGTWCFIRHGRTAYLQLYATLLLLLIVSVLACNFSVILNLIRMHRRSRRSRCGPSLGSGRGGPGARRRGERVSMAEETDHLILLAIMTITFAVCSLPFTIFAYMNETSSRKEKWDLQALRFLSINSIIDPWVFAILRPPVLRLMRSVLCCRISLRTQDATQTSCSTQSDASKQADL
T2 sequence (P43116 whole entry): as above
T3 sequence (P43116 whole entry): as above

| effect of OTR activation on ligand's ability to increase intracellular cAMP (EP2 [2]) | cAMP efficacy at the maximal dose of each ligand (human FLAG-tagged EP2) | PGE2 levels (human FLAG-EP2 [5]) | SMILES | agonist-induced cAMP signalling in labouring groups vs non-labouring (β-adrenergic receptor) | calcium response with OT pre-treatment (EP2 [1]) | release of intracellular cAMP (EP2 [3]) | intracellular Ca2+ release (maximal fluorescence intensity) (human FLAG-EP2 [4]) |
| --- | --- | --- | --- | --- | --- | --- | --- |
| – | – | – | CC(C)NCC(O)c1ccc(O)c(O)c1 (stereo not shown) [isoproterenol] | but not isoproterenol-induced cAMP signalling, was significantly attenuated | – | – | – |
| significantly reduced | equally efficacious | efficacious activators of the pathway | CCCCCC(O)c1ccc(C2CCC(=O)C2CCCCCCC(=O)O)cc1 (stereo not shown) [AH13205] | – | significantly enhance the calcium response | able to elicit release of intracellular cAMP | enhanced Ca2+ significantly above vehicle |
